Results on 20 compounds are retold here after patent publication US5807688A (priority 1995, dated 1998).

Structures are written as SMILES. “And” between values parts separate entries of the source, which are not always exact repeats. Identical values can stand only once.

Series [1] concerns monoclonal antibody 49.AG.659.12. The conditions noted are these: cited from earlier work.
In series [2] the target is monoclonal antibody CF6 (IgG1), Appendix line 13, elicited to TSA (7.2). It counts as binding, mouse.
Series [3] relates to monoclonal antibody CF7 (IgG2a), Appendix line 14, elicited to TSA (7.2). It counts as binding, mouse.
The test system of series [4] is monoclonal antibody EA11-D7 (IgG1), Appendix line 32, elicited to TSA (7.2). It counts as binding, mouse.
Series [5] concerns the target catalytic monoclonal antibody DF8-D5 (IgG1), elicited to phosphonamidate ester hapten (7.2), hybridoma ECACC 96042612. It counts as biochemical, mouse. The conditions noted are these: for Km / kcat / kcat/Km / kcat/kun: pH 6.5.
The subject of series [6] is monoclonal antibody EA11-D7. It counts as binding, mouse. The conditions noted are these: read-out: I50.
In series [7] the target is monoclonal antibody 6D9, raised to phosphonate haptens (2.53) and (2.54). The conditions noted are these: cited from earlier work.
The subject of series [8] is monoclonal antibody CC11-4B4 (IgG1), Appendix line 1, elicited to TSA (7.4). It counts as binding, mouse. The conditions noted are these: inhibition elisa; read-out: aK (ELISA) (converted). (In general: An ELISA detects its analyte on a solid surface through an enzyme-linked reagent.)
For series [9], the system named is monoclonal antibody AB9-16H6 (IgG1), Appendix line 3, elicited to TSA (7.4). It counts as binding, mouse. The conditions noted are these: inhibition elisa; read-out: aK (ELISA) (converted).
The test system of series [10] is monoclonal antibody DG10-8G7 (IgG1), Appendix line 4, elicited to TSA (7.4). It counts as binding, mouse. The conditions noted are these: inhibition elisa; read-out: aK (ELISA).
Series [11] deals with monoclonal antibody AC7-4A10 (IgG1), Appendix line 8, elicited to TSA (7.4). It counts as binding, mouse. The conditions noted are these: inhibition elisa; read-out: aK (ELISA) (converted).
For series [12], the system named is antibody NPN43C9, elicited to phosphonamidate hapten (9.11). Set-up: kcat/Km: unit not given here. The conditions noted are these: cited from earlier work; for Kd: read-out: Kd or Ki.
In series [13] the target is carboxypeptidase G2 (CPG2) (Pseudomonas sp., UniProt P06621). The conditions noted are these: cited from earlier work.
The conditions of series [14]: mouse, in vivo, ip, 0.5 h; cited from earlier work.
The test system of series [15] is LoVo cells.
Series [16] relates to JAR human choriocarcinoma cell line. The conditions noted are these: cited from earlier work.
Series [17] has as its system chorismate mutase (EC 5.4.99.5), E. coli enzyme. The conditions noted are these: cited from earlier work.

carboxypeptidase G2 (CPG2), sequence (P06621 23-415): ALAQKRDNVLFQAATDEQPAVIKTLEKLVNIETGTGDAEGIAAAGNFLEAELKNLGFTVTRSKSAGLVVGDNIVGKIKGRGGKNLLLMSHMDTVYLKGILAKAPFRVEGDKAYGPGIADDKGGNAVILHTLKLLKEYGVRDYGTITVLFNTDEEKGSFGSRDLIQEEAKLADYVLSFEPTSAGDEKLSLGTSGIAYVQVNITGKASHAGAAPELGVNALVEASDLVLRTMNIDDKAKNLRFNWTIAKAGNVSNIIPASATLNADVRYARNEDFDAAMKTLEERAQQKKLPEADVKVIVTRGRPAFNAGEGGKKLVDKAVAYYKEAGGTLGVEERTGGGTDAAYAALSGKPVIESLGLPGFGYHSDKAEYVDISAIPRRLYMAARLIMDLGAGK

Turning to `CC(C)[C@@H](N)C(=O)OC[C@H]1O[C@@H](n2cc(F)c(=O)[nH]c2=O)C[C@@H]1O` [9.4], in series [1], the Km is 215 µM and 218 µM; the kcat is 0.0005 s⁻¹.

On to `CCOP(=O)(Cc1ccc(N)cc1)Nc1cc(C(=O)O)cc(C(=O)O)c1` (stereo not drawn) [7.37, Ethyl N-[(3,5-dicarboxy)phenyl]-P-(4-aminophenylmethyl)phosphonamidate], for which the “Ka (BIAcore)” value is 2.19e+08 M⁻¹ in [2] and “no binding” in [3]. This compound also registered a ka in series [2] (biacore) of 56600 M⁻¹ s⁻¹. In series [2] (biacore), this compound registered a kd of 0.000258 s⁻¹. In series [4] (biacore), the “kd, mean” value was determined as 2.54e-05 s⁻¹.

On to `CCOP(=O)(Cc1ccc(NC(=O)CCCC(=O)O)cc1)Nc1cc(C(=O)O)cc(C(=O)O)c1` (stereo not drawn) [7.6, Ethyl N-[(3,5-dicarboxy)phenyl]-P-[N-(4'-carboxybutyroyl)-4-aminophenylmethyl]phosphonamidate], for which, in series [5], the inhibition constant Ki was 25 nM and 40 nM. Moreover, in [4], the Kd was < 4 nM.

Take `CCOP(=O)(O)Cc1ccc([N+](=O)[O-])cc1` [9.8]: in series [6], the IC50 is 30 nM.

With `O=C(N[C@H](CO)[C@H](OP(=O)(O)Cc1ccc(NC(=O)C(F)(F)F)cc1)c1ccc([N+](=O)[O-])cc1)C(Cl)Cl` [2.54], in series [7], the Ki is 60 nM.

As for `O=C(O)CCCC(=O)Nc1ccc(CP(=O)(O)Nc2cc(C(=O)O)cc(C(=O)O)c2)cc1` [7.7, N-[(3,5-Dicarboxy)phenyl]-P-[N-(4'-carboxybutyroyl)-4-aminophenyl-methyl]phosphonamidic acid], the IC50 in series [8] is 76.9 nM; in series [9], 833 nM; in [10], 10 nM; in series [11] it was 0.455 nM.

As to `Cc1ccc(OC(=O)Cc2ccccc2)cc1` [Me], in series [12], the Km was ~3000 µM, the kcat is 0.15 ± 0.03 s⁻¹ and the kcat/Km is 1.01.

For `O=C(Cc1ccccc1)Oc1ccc(Cl)cc1` [Cl], in series [12], the Km is 720 µM, the kcat is 1.7 ± 0.2 s⁻¹, the kcat/Km is on record as 0.049 and the Kd was 180000 ± 40000 nM.

With `O=C(Nc1cc(C(=O)O)cc(C(=O)O)c1)Oc1ccc(Br)cc1` [9.12, 4-bromophenyl N-(3,5-dicarboxyphenyl)carbamate], in series [5], the Km turned out to be 80 µM, the kcat came to 0.1 s⁻¹, the kcat/Km is reported as 0.075 E6 and the kcat/kun is 1 E5.

On to `O=Cc1ccc(OC(=O)Cc2ccccc2)cc1` [CHO], for which, in series [12], the Km is 250 µM, the catalytic constant (kcat) is 1.0 ± 0.1 s⁻¹, the kcat/Km is 4.1 and the Kd is 90000 ± 10000 nM.

As to `O=C(Cc1ccc(NC(=O)C(F)(F)F)cc1)O[C@H](c1ccc([N+](=O)[O-])cc1)[C@@H](CO)NC(=O)C(Cl)Cl` [2.56], the “rate enhancement, kcat/kuncat” value in series [7] was 1.8×10^3.

For the compound `O=C(Nc1cc(C(=O)O)cc(C(=O)O)c1)Oc1ccc(F)cc1` [9.13, 4-Fluorophenyl N-[(3,5-dicarboxy)phenyl]carbamate], in series [5], the Vmax was 1.1 µM/min, the Km worked out at 41 µM, the kcat turned out to be 0.12 s⁻¹ and the kcat/Km is listed as 0.17 E6. The kcat/kun in series [5] is 4 E5.

For `CC(=O)c1ccc(OC(=O)Cc2ccccc2)cc1` [CH3 CO], in series [12], the Km is ~3000 µM, the kcat entry was “ca. 0.87 s^-1” and the kcat/Km entry is recorded as “ca. 0.282”.

Turning to `O=C(Cc1ccccc1)Oc1ccc([N+](=O)[O-])cc1` [NO2], in [12], the Km is 53 µM, the kcat result was “ca. 25 s^-1”, the kcat/Km entry is listed as “ca. 470” and the Kd is 1000 nM.

With `O=C(O)CC[C@H](NC(=O)c1ccc(N(CCCl)CCCl)cc1)C(=O)O` [3.4, para-[bis(2-chloroethyl)amino]benzoyl-Lglutamic acid], the Km in series [13] was 4.9 µM. In addition, in series [14], the “mean concentration, Gut” value is 12.3; the “mean concentration, Kidney” value is given as 2.9; the “mean concentration, Liver” value is 22.0; the “mean concentration, Lung” value was 0.2. The “mean concentration, Tumour” value in series [14] is given as < 0.05.

In the case of `O=C(Nc1cc(C(=O)O)cc(C(=O)O)c1)Oc1ccc(N(CCCl)CCCl)cc1` [9.2], the “cytotoxicity of the prodrug alone” value in [15] is “significant amount of background cytotoxicity”.

`CS(=O)(=O)OCCN(CCCl)c1ccc(C(=O)O)cc1` [3.16]: the IC50 in series [16] was 220000 ± 10000 nM.

For `O=C(Nc1cc(C(=O)O)cc(C(=O)O)c1)Oc1ccc([N+](=O)[O-])cc1` [9.9, 4-nitrophenyl N-(3,5-dicarboxyphenyl)carbamate], in series [5], the Km is 120 µM, the kcat was 0.3 s⁻¹, the kcat/Km was 0.15 E6 and the kcat/kun is 300.

Consider `COc1ccc(OC(=O)Nc2cc(C(=O)O)cc(C(=O)O)c2)cc1` [9.14, 4-methoxyphenyl N-(3,5-dicarboxyphenyl)carbamate], for which, in [5], the Km turned out to be 58 µM, the kcat amounted to 0.0817 s⁻¹, the kcat/Km is 0.08 E6 and the kcat/kun is reported as 1.2 E6.

In the case of `C=C(O[C@@H]1C=C(C(=O)O)C=C[C@H]1O)C(=O)O` [chorismate, (-)-Chorismic acid], the Km in series [17] was 15 µM.

Broadly, the Km is the substrate concentration at which the rate is half of its maximum. For orientation: kcat means the number of substrate molecules converted per active site and unit of time at saturation. In general, Ki refers to the equilibrium dissociation constant of an inhibitor or competing ligand from its target. What is called Kd is the constant that tells how readily two partners part at equilibrium. By Vmax is commonly meant the rate approached at saturating substrate.
